Here are results for 14 compounds from patent US9133115B2 (ACHILLION PHARMACEUTICALS, INC., priority 2008, dated 2015).

The structures appear in SMILES notation. A value given as a limit tells only on which side of the number the result lay.

The first experiment concerns HCV replicon. Put plainly: HCV replicon replication assay (NPT ELISA) in Huh-7 replicon-containing cells. Type of experiment: cell-based. The note with it: Hepatitis C virus, 72 h; HCV replicon in Huh-7 cells, three days incubation; read-out: EC50. The procedure: Compounds claimed herein are tested for the ability to inhibit viral replication of the Hepatitis C replicon in cultured cells in which the HCV replicon construct has been incorporated. The HCV replicon system was described by Bartenschlager, et. al (Science, 285, pp. 110-113 (1999)). The replicon system is predictive of in vivo anti-HCV activity; compounds that are active in humans uniformly evidence activity in the replicon assay.
In this assay HCV replicon containing cells are treated with different concentrations of the test compound to ascertain the ability of the test compound to suppress replication of the HCV replicon. As a positive control, HCV replicon-containing cells are treated with different concentrations of interferon alpha, a known inhibitor of HCV replication. The replicon assay system includes Neomycin Phosphotransferase (NPT) as a component of the replicon itself in order to detect the transcription of replicon gene products in the host cell. Cells in which the HCV replicon is actively replicating have high levels of NPT; the level of NPT is proportional to HCV replication. […] The NPT level of each sample is measured using a captured ELISA.
A protocol for testing compounds for the ability to inhibit viral replication of the Hepatitis C replicon cultured cells in which the replicon construct has been incorporated, follows.
The HCV replicon contains, 5′-3′, the HCV-IRES, the neomycin phosphotransferase (neo) gene, the IRES of encephalomyocarditis virus, which directs translation of HCV sequences NS3 to NS5B, and the 3′-NTR. The sequence of the HCV replicon has been deposited in GenBank (Accession no. AJ242652).
The replicon is transfected into Huh-7 cells using standard methods such as electroporation.
The equipment and materials include, but are not limited to, Huh-7 HCV replicon-containing cells, maintenance media (DMEM (Dulbecco's modified Eagle media) supplemented with 10% FBS, L-glutamine, non-essential amino acids, penicillin (100 units/ml), streptomycin (100 micrograms/ml), and 500 micrograms/ml of Geneticin (G418), screening media (DMEM supplemented with 10% FBS, L-glutamine, non-essential amino acids, penicillin (100 units/ml) and streptomycin (100 micrograms/ml)), 96 well tissue culture plates (flat bottom), 96 well plates (U bottom for drug dilution), Interferon alpha for positive control, fixation reagent (such as methanol: acetone), primary antibody (rabbit anti-NPTII), secondary antibody: Eu-N1 l, and enhancement solution.
HCV replicon-containing cells support high levels of viral RNA replicon replication when their density is suitable. Over-confluency causes decreased viral RNA replication. Therefore, cells must be kept growing in log phase in the presence of 500 micrograms/ml of G418. Generally, cells should be passed twice a week at 1: 4-6 dilution. Cell maintenance is conducted as follows:
HCV replicon-containing cells are examined under a microscope to ensure that cells growing well. Cells are rinsed once with PBS and 2 ml trypsin is added. The cell/trypsin mixture is incubated at 37° C. in a CO2 incubator for 3-5 minutes. After incubation 10 ml of complete media is added to stop the trypsinization reaction. Cells are blown gently, put into a 15 ml tube, and spun at 1200 rpm for 4 minutes. The trypsin/medium solution is removed. Medium (5 ml) is added and the cells are mixed carefully. The cells are counted.
The cells are then seeded onto 96-well plates at a density of 6000-7500 cells/100 microliters/well (6-7.5×10^5 cells/10 ml/plate). The plates are then incubated at 37° C. in a 5% CO2 incubator.
Cells are examined under a microscope approximated 24 hours after seeding and prior to adding drugs. If counting and dilution were performed correctly, cells are 60-70% confluent and nearly all cells should attach and spread evenly in the well.
HCV replicon-containing cells are rinsed with once PBS once; 2 mls of trypsin are then added. Cells are incubated at 37° C. in a 5% CO2 incubator for 3-5 minutes. […]
For orientation: In antiviral work, replicon cells carry a viral genome segment that copies itself.
`C=C[C@@H]1C[C@]1(NC(=O)[C@@H]1C[C@H](Oc2cc(-c3ccccc3)nc3cc(OC)ccc23)CN1C(=O)[C@@H](CC(=O)N1CCCCC1)C(C)(C)C)C(=O)NS(=O)(=O)C1CC1` [Compound 132, (2S,4S)-1-((S)-2-tert-butyl-4-oxo-4-(piperidin-1-yl)butanoyl)-N-((1R,2S)-1-(cyclo-propylsulfonyl-carbamoyl)-2-vinylcyclopropyl)-4-(7-methoxy-2-phenylquinolin-4-yloxy)pyrrolidine-2-carboxamide]: the EC50 (usually the concentration giving half of the maximal effect) is less than 1 µM. Consider `C=C[C@H]1C[C@]1(NC(=O)[C@@H]1C[C@@H](Oc2cc(-c3ccccc3)nc3cc(OC)ccc23)CN1C(=O)[C@@H](CC(=O)N1CCCCC1)CC1CCCC1)C(=O)NS(=O)(=O)C1CC1` [Compound 57, (2S,4R)-1-((R)-2-(cyclopentylmethyl)-4-oxo-4-(piperidin-1-yl)butanoyl)-N-((1R,2R)-1-(cyclopropyl-sulfonylcarbamoyl)-2-vinylcyclopropyl)-4-(7-methoxy-2-phenylquinolin-4-yloxy)pyrrolidine-2-carboxamide], for which the EC50 is less than 1 µM. The same measure, in the same setting: for `C=CC1C[C@]1(NC(=O)[C@@H]1C[C@@H](Oc2cc(-c3ccccc3)nc3cc(OC)ccc23)CN1C(=O)[C@@H](CC(=O)N1CCCC(C(=O)N(CC)CC)C1)C(C)(C)C)C(=O)NS(=O)(=O)C1CC1` (stereo partly drawn) [Compound 159, 1-((S)-3-((2S,4R)-2-((1R,2S)-1-(cyclo-propylsulfonyl-carbamoyl)-2-vinyl-cyclopropyl-carbamoyl)-4-(7-methoxy-2-phenylquinolin-4-yloxy)pyrrolidine-1-carbonyl)-4,4-dimethylpentanoyl)-N,N-diethylpiper-idine-3-carboxamide] the value was less than 1 µM; for `C=C[C@@H]1C[C@]1(NC(=O)[C@@H]1C[C@@H](NC(=O)n2c3ccccc3c3ccccc32)CN1C(=O)[C@@H](CC(=O)N1CCC(F)(F)C1)C(C)(C)C)C(=O)NS(=O)(=O)C1CC1` [Compound 186, N-((3R,5S)-1-((S)-2-tert-butyl-4-(3,3-difluoropyrrolidin-1-yl)-4-oxobutanoyl)-5-((1R,2S)-1-(cyclopropylsulfonyl-carbamoyl)-2-vinyl-cyclopropyl-carbamoyl)pyrrolidin-3-yl)-9H-carbazole-9-carboxamide], less than 1 µM; for `C=C[C@@H]1C[C@]1(NC(=O)[C@@H]1C[C@@H](Oc2cc(-c3ccccc3)nc3cc(OC)ccc23)CN1C(=O)C(CC(=O)N1CCCCC1)C(C)(C)C)C(=O)NS(=O)(=O)C1CC1` (stereo partly drawn) [Compound 55, (2S,4R)-1-(2-tert-butyl-4-oxo-4-(piperidin-1-yl)butanoyl)-N-((1R,2S)-1-(cyclopropyl-sulfonylcarbamoyl)-2-vinylcyclopropyl)-4-(7-methoxy-2-phenylquinolin-4-yloxy)pyrrolidine-2-carboxamide], less than 1 µM. Same read-out and setting: with `C=C[C@@H]1C[C@]1(NC(=O)[C@@H]1C[C@@H](NC(=O)c2cc(-c3ccccc3)nc3ccccc23)CN1C(=O)[C@@H](CC(=O)N1CCCCCC1)C(C)(C)C)C(=O)NS(=O)(=O)C1CC1` [Compound 203, N-((3R,5S)-1-((S)-4-(azepan-1-yl)-2-tert-butyl-4-oxobutanoyl)-5-((1R,2S)-1-(cyclo-propylsulfonyl-carbamoyl)-2-vinylcyclopropyl-carbamoyl)pyrrolidin-3-yl)-2-phenylquinoline-4-carboxamide] the figure was less than 1 µM; with `C=C[C@@H]1C[C@]1(NC(=O)[C@@H]1C[C@@H](Oc2cc(-c3ccccc3)nc3cc(OC)ccc23)CN1C(=O)[C@@H](CC(=O)N1CCC(N(C)C)C1)C(C)(C)C)C(=O)NS(=O)(=O)C1CC1` (stereo partly drawn) [Compound 90, (2S,4R)-1-((2S)-2-tert-butyl-4-(3-(dimethylamino)pyr-rolidin-1-yl)-4-oxobutanoyl)-N-((1R,2S)-1-(cyclopropylsulfonyl-carbamoyl)-2-vinylcyclopropyl)-4-(7-methoxy-2-phenylquinolin-4-yloxy)pyrrolidine-2-carboxamide], 1 to 10 µM. With `C=C[C@@H]1C[C@]1(NC(=O)[C@@H]1C[C@@H](Oc2cc(-c3ccccc3)nc3ccc(OC)cc23)CN1C(=O)[C@@H](CC(=O)N1CCCCC1)C(C)(C)C)C(=O)NS(=O)(=O)C1CC1` [Compound 229, (2S,4R)-1-((S)-2-tert-butyl-4-oxo-4-(piperidin-1-yl)butanoyl)-N-((1R)-1-(cyclopropyl-sulfonylcarbamoyl)-2-vinylcyclopropyl)-4-(6-methoxy-2-phenylquinolin-4-yloxy)pyrrolidine-2-carboxamide], the EC50 is less than 1 µM. `C=C[C@@H]1C[C@]1(NC(=O)[C@@H]1C[C@@H](Oc2cc(-c3ccccc3)nc3cc(OC)ccc23)CN1C(=O)[C@@H](CC(=O)N1CC2CC3CC(C2)CC1C3)C(C)(C)C)C(=O)NS(=O)(=O)C1CC1` [Compound 81]: the EC50 is less than 1 µM.

For the compound `C=C[C@@H]1C[C@]1(NC(=O)[C@@H]1C[C@@H](Oc2cc(-c3ccccn3)nc3cc(OC)ccc23)CN1C(=O)[C@@H](CC(=O)N1CCC(F)CC1)C(C)(C)C)C(=O)NS(=O)(=O)C1CC1` [Compound 218, (2S,4R)-1-((S)-2-tert-butyl-4-(4-fluoropiperidin-1-yl)-4-oxobutanoyl)-N-((1R)-1-(cyclo-propylsulfonyl-carbamoyl)-2-vinylcyclopropyl)-4-(7-methoxy-2-(pyridin-2-yl)quinolin-4-yloxy)pyrrolidine-2-carboxamide], the EC50 is less than 1 µM. For `C=C[C@@H]1C[C@]1(NC(=O)[C@@H]1C[C@@H](Oc2cc(-c3ccccn3)nc3c4c(ccc23)CCC4)CN1C(=O)[C@@H](CC(=O)N1CCCC(F)(F)C1)C(C)(C)C)C(=O)NS(=O)(=O)C1CC1` [Compound 236, (2S,4R)-1-((S)-2-tert-butyl-4-(3,3-difluoropiperidin-1-yl)-4-oxobutanoyl)-N-((2S)-1-(cyclopropyl-sulfonylcarbamoyl)-2-vinylcyclopropyl)-4-(2-(pyridin-2-yl)-8,9-dihydro-7H-cyclopenta[h]quino-lin-4-yloxy)pyrrolidine-2-carboxamide], the EC50 was less than 1 µM.

`C=C[C@@H]1C[C@]1(NC(=O)[C@@H]1C[C@@H](NC(=O)c2cc(-c3ccccc3)nc3ccccc23)CN1C(=O)[C@@H](CC(=O)N1CCCC(F)(F)C1)C(C)(C)C)C(=O)NS(=O)(=O)C1CC1` [Compound 202, N-((3R,5S)-1-((S)-2-tert-butyl-4-(3,3-difluoropiperidin-1-yl)-4-oxobutanoyl)-5-((1R,2S)-1-(cyclo-propylsulfonyl-carbamoyl)-2-vinyl-cyclopropyl-carbamoyl)pyrrolidin-3-yl)-2-phenylquinoline-4-carboxamide]: the EC50 is less than 1 µM. In the case of `C=C[C@@H]1C[C@]1(NC(=O)[C@@H]1C[C@@H](Oc2cc(-c3ccccc3)nc3cc(OC)ccc23)CN1C(=O)[C@@H](CC(=O)N1CC(F)(F)C1)C(C)(C)C)C(=O)NS(=O)(=O)C1CC1` [Compound 223, (2S,4R)-1-((S)-2-tert-butyl-4-(3,3-difluoroazetidin-1-yl)-4-oxobutanoyl)-N-((1R)-1-(cyclopropyl-sulfonylcarbamoyl)-2-vinylcyclopropyl)-4-(7-methoxy-2-phenylquinolin-4-yloxy)pyrrolidine-2-carboxamide], the EC50 is less than 1 µM.

The experiment is the same for the next values; noted with them: Hepatitis C virus, Huh-7.
`C=CC1CC1(NC(=O)[C@@H]1C[C@@H](Oc2cc(-c3ccccc3)nc3cc(OC)ccc23)CN1C(=O)[C@@H](CC(=O)O)C(C)(C)C)C(=O)OCC` (stereo partly drawn) [Compound 11, (3S)-3-((2S,4R)-2-(1-(ethoxycarbonyl)-2-vinylcyclopropylcarbamoyl)-4-(7-methoxy-2-phenylquinolin-4-yloxy)pyrrolidine-1-carbonyl)-4,4-dimethylpentanoic acid] came in with an EC50 not above 10 µM.
